# Data published in publication PMC8728441, “Biosynthesis of the redox cofactor mycofactocin is controlled by the transcriptional regulator MftR and induced by long-chain acyl-CoA species” (The Journal of Biological Chemistry, 2021).
# Tests used:
# MftR–Omft complex = assay: Competitive EMSA screen for effectors of MftR; type: binding, Mycobacterium smegmatis mc^2155; settings: 6-FAM Omft 0.5 μM, MftR 5 μM, effectors 100 μM
# Method: Next, we assessed which metabolites activate MftR and thus could induce MFT production. To do so, we carried out competitive EMSAs where FAM-labeled Omft and MftR were incubated in the presence of potential effectors. We initially chose our effectors based on cholesterol catabolism, a process that putatively includes MFT biosynthetic genes ([38]). […] Knowing that TFRs have a propensity to be activated by fatty acyl-CoAs ([20]), we expanded our effector screening to include short-chain, medium-chain, and long-chain acyl-CoAs.
# Figure 4 Effectors of MftR.A, an EMSA used to screen effectors of MftR. The 6-FAM–labeled Omft region (0.5 μM) was incubated with the MftR (5 μM) in the absence or the presence of effectors (100 μM). Protein–DNA complexes were separated by electrophoresis on 5% polyacrylamide gel. […] B, a representative isothermal titration calorimetry thermogram for the binding of the oleoyl-CoA to MftR regulator (blue) and the control of oleoyl-CoA into buffer (red). Each peak corresponds to the injection of 2.22 μl of 250 μM oleoyl-CoA into the cell containing 16 μM MftR or buffer. The integrated thermogram (blue dots) was fitted to a single-site binding model (black line) to determine the Kd. […] C, a bar graph depicting the ITC measured Kds for various acyl-CoAs. Bars represent the mean of three independent experiments, and the error bars represent the standard deviation of the experiments. 6-FAM, 6-carboxyfluorescein; ITC, isothermal titration calorimetry; Omft, mft operator.
# His-tagged MftR was used to assess the protein binding to Pmft–MftA promoter fragment. DNA was mixed with increasing concentrations of the MftR protein in the reaction buffer (50 mM Hepes, 50 mM NaCl 0.1 mM EDTA, and pH 7.5) and incubated at room temperature for 10 min. The reactions were resolved by electrophoresis on a 5% (v/v) nondenaturing polyacrylamide gel in 1× Tris/borate/EDTA buffer at 200 V for 20 min on ice. Prior to the analysis, the gel was prerun for 30 min at 150 V on ice. Results were visualized by GelRed and recorded using Azure Biosystems 600 imaging system.
# MftR S67W = assay: ITC binding of oleoyl-CoA to MftR variant; parameters: species or system Mycobacterium smegmatis mc^2155; settings: S67W mutation vs WT, ITC
# From the text: (§1) Next, we examined which amino acid residues contribute to the interaction between MftR and oleoyl-CoA. The crystal structure of Msmeg MftR is currently unavailable; however, an unpublished structure of Rhodococcus jostii RHA1 MftR has been deposited in the Protein Data Bank (PDB) (PDB ID: 2RAE, 54% identical, Fig. S3). Using this structure, we employed SwissDock to model oleoyl-CoA bound to MftR (Fig. 5) ([41], [42]). From the docked structure, we identified eight conserved residues on MftR that were expected to create the acyl-binding pocket or bind CoA through electrostatic interactions. Following single amino acid replacements of the residues, we measured the Kd values of the mutant proteins to oleoyl-CoA using ITC. For the putative acyl-binding pocket residues Phe65, Phe96, and Ile114, mutations to alanine led to no or modest change to the Kd for oleoyl-CoA (Table 1). […] Conversely, when His68 was mutated to alanine, binding of oleoyl-CoA by the protein was undetectable. To validate this observation, competitive EMSAs were carried out using the H68A mutant. […] Thus, it is highly likely that His68 is an important residue for oleoyl-CoA binding. To evaluate residues that were expected to interact with CoA, Gln15, Asp16, Ser67, and Asp66 were targeted. Of these, mutants of Asp16 and Ser67 had the greatest effect (Table 1). […] This latter observation was validated using competitive EMSAs (Fig. S4B). […] Taken together, it is likely that Ser67 and Asp16 participate in oleoyl-CoA binding, likely through electrostatic interactions.
# (§2) Mutant strand synthesis reactions were performed according to the Agilent QuikChange site-directed mutagenesis protocol. The mftR_pET28a plasmid was used as a template for site-directed mutagenesis studies. Sequence-verified plasmids were transformed into E. coli BL21(DE3) pLysS cells for protein production and purified using the same protocol as wildtype MftR.
# (§3) ITC was performed using TA Nano ITC. MftR was loaded in the sample cell at the concentration of 16 and 250 μM acyl-CoAs (C12–C18) loaded in the syringe. To minimize the effect of buffer mismatch, the stock concentration of acyl-CoAs was prepared using ITC buffer (50 mM Hepes, 50 mM NaCl, and pH 7.5), and the pH was adjusted to within 0.05 units. In addition, MftR was buffer exchanged into ITC buffer using a PD-10 column (GE Life Sciences). The volume of the titrant added at each injection into the sample cell was 2.22 μl. The time interval between the successive injections was 180 s. The temperature of the cell was kept at 25 °C. The data obtained were fit by independent one-site model using NanoAnalyze Data Analysis, version 3.8.0, that was provided with the instrument.
# MftR H68A = assay: ITC binding of oleoyl-CoA to MftR variant; parameters: species or system Mycobacterium smegmatis mc^2155; settings: ND = not detected
# From the text: as §1, §2, §3
# MftR D16R–Omft complex = assay: Competitive EMSA with D16R mutant and oleoyl-CoA; type: binding, Mycobacterium smegmatis mc^2155; settings: up to 100 μM oleoyl-CoA
# From the text: Next, we examined which amino acid residues contribute to the interaction between MftR and oleoyl-CoA. The crystal structure of Msmeg MftR is currently unavailable; however, an unpublished structure of Rhodococcus jostii RHA1 MftR has been deposited in the Protein Data Bank (PDB) (PDB ID: 2RAE, 54% identical, Fig. S3). Using this structure, we employed SwissDock to model oleoyl-CoA bound to MftR (Fig. 5) ([41], [42]). From the docked structure, we identified eight conserved residues on MftR that were expected to create the acyl-binding pocket or bind CoA through electrostatic interactions. Following single amino acid replacements of the residues, we measured the Kd values of the mutant proteins to oleoyl-CoA using ITC. For the putative acyl-binding pocket residues Phe65, Phe96, and Ile114, mutations to alanine led to no or modest change to the Kd for oleoyl-CoA (Table 1). […] Conversely, when His68 was mutated to alanine, binding of oleoyl-CoA by the protein was undetectable. To validate this observation, competitive EMSAs were carried out using the H68A mutant. […] Thus, it is highly likely that His68 is an important residue for oleoyl-CoA binding. To evaluate residues that were expected to interact with CoA, Gln15, Asp16, Ser67, and Asp66 were targeted. Of these, mutants of Asp16 and Ser67 had the greatest effect (Table 1). […]
# MftR L120A = molecular target: T1, MftR L120A (Mycolicibacterium smegmatis, UniProt A0QSB5, L120A); assay: ITC binding of oleoyl-CoA to MftR variant; parameters: species or system Mycobacterium smegmatis mc^2155
# T1 sequence (A0QSB5 1-200 L120A): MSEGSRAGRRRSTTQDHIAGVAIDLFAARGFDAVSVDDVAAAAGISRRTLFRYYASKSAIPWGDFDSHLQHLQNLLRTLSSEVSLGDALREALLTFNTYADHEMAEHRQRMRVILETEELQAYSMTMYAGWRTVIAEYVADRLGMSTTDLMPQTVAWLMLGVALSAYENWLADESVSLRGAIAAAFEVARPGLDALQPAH
compound,measurement,setting,value
CCCCCCCC/C=C\CCCCCCCC(=O)SCCNC(=O)CCNC(=O)[C@H](O)C(C)(C)COP(=O)(O)OP(=O)(O)OC[C@H]1O[C@@H](n2cnc3c(N)ncnc32)[C@H](O)[C@@H]1OP(=O)(O)O [oleoyl-CoA],disruption of the MftR–Omft complex (DNA release),MftR–Omft complex,disrupted the MftR–Omft complex
same,increase in the Kd value for oleoyl-CoA,MftR S67W,eightfold increase
same,Kd,MftR H68A,undetectable
same,release of Omft from D16R mutant,MftR D16R–Omft complex,remained bound to Omft
same,Kd,MftR L120A,5.2 ± 0.2 µM
